How the values were obtained:
[1] = target: T1, jejunal TG2 (Rattus norvegicus, UniProt Q9WVJ6); test: Jejunal mucosal TG2 activity after oral dosing in kneaded gluten vehicle; type: in vivo, rats; settings: 35 mg/kg oral in kneaded gluten vehicle, 1 h after administration
T1 construct: from tissue; host or cells: rat jejunal mucosa
T1 sequence (Q9WVJ6 1-686): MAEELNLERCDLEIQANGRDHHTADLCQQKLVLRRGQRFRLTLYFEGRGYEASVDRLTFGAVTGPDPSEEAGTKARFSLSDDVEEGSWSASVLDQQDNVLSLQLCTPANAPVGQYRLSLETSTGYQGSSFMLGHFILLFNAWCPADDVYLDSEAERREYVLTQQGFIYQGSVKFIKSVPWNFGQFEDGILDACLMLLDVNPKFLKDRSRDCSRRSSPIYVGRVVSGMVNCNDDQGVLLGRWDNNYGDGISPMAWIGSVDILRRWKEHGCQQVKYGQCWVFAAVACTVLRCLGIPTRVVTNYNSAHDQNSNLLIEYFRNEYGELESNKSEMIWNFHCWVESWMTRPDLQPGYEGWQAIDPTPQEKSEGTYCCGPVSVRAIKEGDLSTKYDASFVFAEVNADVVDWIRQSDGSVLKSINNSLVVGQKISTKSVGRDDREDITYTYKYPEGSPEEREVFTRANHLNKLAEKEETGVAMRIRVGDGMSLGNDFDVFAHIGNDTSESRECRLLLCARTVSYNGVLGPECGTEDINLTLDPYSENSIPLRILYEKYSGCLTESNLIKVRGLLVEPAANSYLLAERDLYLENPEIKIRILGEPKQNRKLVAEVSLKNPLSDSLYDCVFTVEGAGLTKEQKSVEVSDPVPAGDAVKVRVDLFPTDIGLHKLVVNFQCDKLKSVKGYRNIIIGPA
Description: Due to the absence of an appropriate animal model for Celiac Sprue, the therapeutic benefit of TG2 inhibitors for this disease can only be validated in patients. Our goal is therefore to identify a safe, oral TG2 inhibitor that can block mucosal TG2 activity in the upper small intestine of Celiac Sprue patients. Such an agent could be used in the context of a short (2 week) blinded crossover trial in Celiac Sprue patients to determine if TG2 inhibition protects a Celiac Sprue patient from gluten-induced malabsorption. From available data, KCC009 may be precisely such a compound. […] To test whether orally administered KCC009 can inhibit jejunal TG2 activity, adult male rats were dosed with 35 mg/kg KCC009 in a kneaded gluten vehicle. Animals were sacrificed 1 h after administration of either vehicle-gluten (n=3) or drug-gluten (n=4), and jejunal mucosa was harvested. In vehicle treated animals, jejunal TG2 activity was 21±7 pmol/min/mg protein, whereas in KCC009 treated rats TG2 activity of 5.5±3 pmol/min/mg protein was observed. Thus, a suitable oral formulation may therefore enable local delivery of KCC009 to intestinal mucosa.

[2] = target: T2, tumor associated TG2 (Mus musculus, UniProt P21981); test: Intracranial DBT tumor associated TG2 activity after dosing; type: in vivo, mice
T2 construct: from tissue; host or cells: intracranial DBT glioblastoma tumours from dosed mice
T2 sequence (P21981 1-686): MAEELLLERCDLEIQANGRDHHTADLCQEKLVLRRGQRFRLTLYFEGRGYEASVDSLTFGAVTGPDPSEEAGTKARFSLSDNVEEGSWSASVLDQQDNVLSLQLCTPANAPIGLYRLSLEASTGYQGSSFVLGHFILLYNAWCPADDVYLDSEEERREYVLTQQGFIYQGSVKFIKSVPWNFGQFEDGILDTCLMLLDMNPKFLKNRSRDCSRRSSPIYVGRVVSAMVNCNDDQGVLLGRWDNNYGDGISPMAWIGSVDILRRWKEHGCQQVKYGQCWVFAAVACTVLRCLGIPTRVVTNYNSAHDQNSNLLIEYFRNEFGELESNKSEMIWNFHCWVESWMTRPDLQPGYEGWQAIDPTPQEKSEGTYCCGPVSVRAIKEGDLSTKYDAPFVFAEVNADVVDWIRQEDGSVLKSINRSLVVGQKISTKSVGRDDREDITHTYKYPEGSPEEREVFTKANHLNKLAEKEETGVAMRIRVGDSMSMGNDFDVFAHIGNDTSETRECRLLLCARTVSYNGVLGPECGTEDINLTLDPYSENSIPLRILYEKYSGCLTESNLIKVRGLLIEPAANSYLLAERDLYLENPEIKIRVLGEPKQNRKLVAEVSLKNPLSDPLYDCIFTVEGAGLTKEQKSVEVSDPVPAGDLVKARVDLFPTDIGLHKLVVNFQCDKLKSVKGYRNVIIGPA
Experimental: (§1) To test whether therapeutic doses of KCC009 can modulate TG2 activity associated with intracranial glioblastomas, DBT tumors were injected intracranially in mice. As judged by MRI, the mice consistently established intracranial tumors after 7-10 days following injections, which, if untreated, caused death by 2-3 weeks. In an initial dose-finding experiment, cohorts of mice were administered 4 daily doses of vehicle or KCC009 (12.5 mg/kg, 25 mg/kg and 50 mg/kg) starting on day 11 after intra-cranial injections. Twenty-four hours later, the mice were sacrificed and tumors analyzed. […] Based on these findings a dose of 35 mg/kg was used for subsequent experiments in mice harboring intracranial DBT tumors.
As summarized in Table 4, KCC009 treatment led to significant suppression of TG2 activity after 15 min, whereas enzyme activity recovers fully by 24 h. Both uninhibited and inhibited activity levels are consistent with similar measurements in the small intestinal mucosa (data not shown).

[3] = test system: B16 mouse melanoma cells; test: Melanoma cell treatment with KCC009 and/or BCNU; type: cell-based; settings: 24 h, 1 mM KCC009 alone or with 6.25 μM BCNU
Experimental: FIG. 6A-6D: Photomicrographs of B16 (mouse melanoma cells) after 24 h treatment with KCC009 and/or BCNU. A) Control; B) 1 mM KCC009 only; C) 6.25 μM BCNU only; D) KCC009+BCNU combination.
Activity of KCC009 against melanomas: Melanomas are cancers of the neural crest-derived cells that provide pigmentation to skin and other tissues. No current treatments substantially enhance patient survival once metastasis has occurred.

[4] = test system: intracranial DBT tumors; test: Intracranial DBT glioblastoma dose-finding and chemosensitizer studies; type: in vivo, mice
Experimental: as §1
To evaluate the activity of KCC009 as a chemosensitizer, mice harboring DBT tumors were treated either with 10 mg/kg BCNU alone (2 mice) or BCNU+35 mg/kg KCC009 (3 mice). As before, 4 daily drug doses were administered intraperitoneally starting on day 11. Tumors were harvested for immuno-histological analysis 24 h after the last dose.

[5] = test system: glioblastoma cells; test: In vitro treatment of glioblastoma cells; type: cell-based

With `O=C(N[C@@H](Cc1ccc(O)cc1)C(=O)NCC1CC(Br)=NO1)OCc1ccccc1` (stereo partly shown) [Compound 59] the “jejunal TG2 activity” value [1] was 5.5±3 pmol/min/mg protein, the “TG2 activity-BCNU + KCC009” value ([2]; BCNU + 50 mg/kg KCC009, 15 min after last of four daily doses) was 1.2 ± 0.3 (n = 4) nmol/h/mg protein and the “TG2 activity-BCNU + KCC009” value ([2]; BCNU + 50 mg/kg KCC009, 24 h after last of four daily doses) was 2.1 ± 0.2 (n = 3) nmol/h/mg protein. For the same compound, the “sensitivity of melanoma cells” value [3] was “sensitive”, the “fibronectin staining of tumors” value ([4]; 10 mg/kg BCNU + 35 mg/kg KCC009 i.p., 4 daily doses, versus BCNU alone) was “decrease in fibronectin staining overall and an apparent dramatic decrease in the extracellular matrix” and the “gross tumor size and brain swelling” value ([4]; 12.5 mg/kg or 25 mg/kg, 4 daily doses from day 11) was “smaller tumors and reduced brain swelling”. The gross tumor ([4]; 50 mg/kg, 4 daily doses from day 11, one mouse) was “did not have any gross tumor”, the apoptosis [5] was “promoted apoptosis” and the “changes in levels of survival proteins” value [5] was “markedly decreased levels of phosphorylated Akt, survivin, phosphorylated Bad, and phosphorylated glycogen synthetase kinase 3β; and increased levels of the pro-apoptotic BH3-only protein, Bim”. For the same compound, the “sensitivity to chemotherapeutic agents” value [5] was “enhanced sensitivity to chemotherapeutic agents”.
